Data taken from ChEMBL document CHEMBL3046784, “Exploring QSAR of antiamoebic agents of isolated natural products by MLR, ANN, and RTO” (Med Chem Res, 2012).
Converted amounts (≈) assume the structure as drawn.

The molecules below were run on Entamoeba histolytica (assay: Antiamoebic activity against Entamoeba histolytica). Details: Entamoeba histolytica; read-out: IC50.
Assay type: functional, organism-based

| SMILES | IC50 [µg/mL] |
| --- | --- |
| COc1ccc2cc1Oc1ccc(cc1)C[C@H]1c3c(cc(OC)c(O)c3Oc3cc4c(cc3OC)CCN(C)[C@@H]4C2)CCN1C [HOMOAROMOLINE] | 10.5 (≈ 17.3 µM) |
| O=c1c(O[C@@H]2O[C@H](CO)[C@H](O)[C@H](O)[C@H]2O)c(-c2ccc(O)c(O)c2)oc2cc(O)cc(O)c12 [HYPEROSIDE] | 144 (≈ 309 µM) |
| COc1cc2c3c(c1OC)Oc1ccc(cc1)C[C@H]1c4c(cc(OC)c5c4Oc4ccc(cc4O5)C[C@H]3N(C)CC2)CCN1C [INSULARINE] | 6.88 (≈ 11.3 µM) |
| COc1cc2c3c(c1O)Oc1ccc(cc1)C[C@@H]1c4c(cc(OC)c(O)c4Oc4ccc(cc4)C[C@H]3N(C)CC2)CCN1C [ISOCHONDODENDRINE] | 10.5 (≈ 17.7 µM) |
| CN[C@H]1CC[C@@]2(C)C(=CC[C@H]3[C@@H]4CC[C@@H]5[C@H](C)N(C)C[C@@]54CC[C@@H]32)C1 [ISOCONESSIMINE] | 20.9 (≈ 61 µM) |
| COc1ccc2c(c1O)-c1c(OC)c(OC)cc3c1[C@H](C2)N(C)CC3 [ISOCORYDINE] | 50.1 (≈ 147 µM) |
| C/C=C1/CN2CC[C@]34c5ccccc5N(C(C)=O)[C@H]3[C@H](C=O)[C@H]1C[C@H]24 [ISORETULINAL] | 24.1 (≈ 71.8 µM) |
| C/C=C1/CN2CC[C@]34c5ccccc5N(C(C)=O)C3[C@H](CO)[C@H]1C[C@H]24 (some centres not stated) [ISORETULINE] | 21.9 (≈ 64.7 µM) |
| C/C=C1/CN2CC[C@]34c5ccccc5N(C(C)=O)[C@H]3[C@H]([C@H]3OC[C@@H]5[C@H]6C[C@@H]7N(CC[C@@]78c7ccccc7N3[C@@H]58)C[C@H]6CC)[C@H]1C[C@H]24 [ISOSTRYCHNOBILINE] | 20.9 (≈ 33.8 µM) |
| CC[C@H]1CN2CCC3c4ccc(O)c([C@@H]5CCCN5C)c4NC3[C@@H]2C[C@@H]1C[C@H]1c2[nH]c3ccccc3c2CCN1C (some centres not stated) [ISOSTRYCHNOPENTAMINE] | 10.4 (≈ 18.8 µM) |
| COc1ccc2cc1Oc1ccc(cc1)C[C@@H]1c3cc(c(OC)cc3CCN1C)Oc1c(OC)c(OC)cc3c1[C@H](C2)N(C)CC3 [ISOTETRANDRINE] | 13.8 (≈ 22.2 µM) |
| COc1ccc2cc1Oc1ccc(cc1)C[C@H]1c3c(cc(OC)c4c3Oc3cc5c(cc3O4)CCN(C)[C@H]5C2)CCN1C [ISOTRILOBINE] | 6.22 (≈ 10.8 µM) |
| C[C@H]1O[C@H](Oc2c(-c3ccc(O)cc3)oc3cc(O)cc(O)c3c2=O)[C@@H](O)[C@@H](O)[C@@H]1O [KAEMPFEROL-3-O-RHAMNOSIDE] | 64.7 (≈ 150 µM) |
| C[C@H]1O[C@H](OC[C@H]2O[C@@H](Oc3c(-c4ccc(O)cc4)oc4cc(O)cc(O)c4c3=O)[C@H](O)[C@@H](O)[C@@H]2O)[C@@H](O)[C@@H](O)[C@@H]1O [KAEMPFEROL-3-O-RUTINOSIDE] | 72.5 (≈ 122 µM) |
| C[C@H]1O[C@H](OC[C@H]2O[C@@H](Oc3cc(O)c4c(=O)c(O)c(-c5ccc(O)cc5)oc4c3)[C@H](O[C@@H]3O[C@H](CO)[C@@H](O)[C@H](O)[C@H]3O)[C@@H](O)[C@@H]2O)[C@@H](O)[C@@H](O)[C@@H]1O [KAEMPFEROL-7-O-RHAMNOSYL-SOPHOROSIDE] | > 125 |
| O=c1c(O)c(-c2ccc(O)cc2)oc2cc(O)cc(O)c12 [KAEMPFEROL] | 7.93 (≈ 27.7 µM) |
| O=c1cc(-c2ccc(O)c(O)c2)oc2cc(O)cc(O)c12 [LUTEOLIN] | 17.8 (≈ 62.2 µM) |
| O=C(O)/C=C/c1ccccc1O[C@@H]1O[C@H](CO)[C@@H](O)[C@H](O)[C@H]1O [MELILOTOSIDE] | 12.5 (≈ 38.3 µM) |
| COC(=O)C1=CO[C@@H](O[C@@H]2O[C@H](CO)[C@@H](O)[C@H](O)[C@H]2O)[C@H]2[C@@H]1C=C[C@@]21C=C(C(O)c2ccc(O)c(OC)c2)C(=O)O1 (some centres not stated) [METHOXY-GAERTNEROSIDE] | 2.3 (≈ 3.98 µM) |

| SMILES | IC50 [µg/mL] |
| --- | --- |
| CO[C@H]1[C@H](O)[C@@H](O)[C@@H](O)[C@H](O)[C@@H]1O [METHYLINOSITOL] | 16.6 (≈ 85.4 µM) |
| COc1ccc(/C=C/C(=O)O[C@H]2[C@@H]3C=CO[C@@H](O[C@@H]4O[C@H](CO)[C@@H](O)[C@H](O)[C@H]4O)[C@@H]3[C@@]3(CO)O[C@@H]23)cc1O [MINECOSIDE] | 0.398 (≈ 0.739 µM) |
| O=c1c(O)c(-c2cc(O)c(O)c(O)c2)oc2cc(O)cc(O)c12 [MYRICETIN] | 115 (≈ 362 µM) |
| O=C1C[C@@H](c2ccc(O)cc2)Oc2cc(O)cc(O)c21 [NARINGENIN] | 92.2 (≈ 339 µM) |
| C/C=C1/CN2CCc3c(n(C)c4ccccc34)[C@@H]2C[C@@H]1Cc1nccc2c1[nH]c1ccccc12 [NBETA-METHYL USAMBARENSINE] | 4.12 (≈ 9.23 µM) |
| COc1cc2c3c(c1O)-c1c(ccc(OC)c1OC)C[C@@H]3NCC2 [NORCORYDINE] | 50 (≈ 153 µM) |
| C/C=C1/CN2CC[C@]34c5ccccc5N(C(C)=O)[C@H]3[C@H](COC(C)=O)[C@H]1C[C@H]24 [O-ACETYLISORETULINE] | 23.2 (≈ 61.1 µM) |
| COc1cc2c3cc1Oc1c(O)c(OC)cc4c1[C@@H](Cc1ccc(O)c(c1)Oc1ccc(cc1)C[C@@H]3N(C)CC2)N(C)CC4 [OBAMEGINE] | 18.3 (≈ 30.8 µM) |
| CC[C@H]1CN2CCC3c4ccccc4NC3[C@@H]2C[C@@H]1C[C@H]1NCCc2c1[nH]c1ccccc21 (some centres not stated) [OCHROLIFUANINE A] | 1.3 (≈ 2.95 µM) |
| COc1cc(O)c2c(=O)c(O)c(-c3ccc(OC)c(O)c3)oc2c1 [OMBUINE] | 70.3 (≈ 213 µM) |
| COc1ccc2cc1Oc1ccc(cc1)C[C@@H]1c3cc(c(OC)cc3CCN1C)Oc1c(OC)c(OC)cc3c1[C@@H](C2)N(C)CC3 [PHAEANTHINE] | 10.8 (≈ 17.4 µM) |
| COc1cc(O)c2c(c1)C(=O)c1cc(C)cc(O)c1C2=O [PHYSCION] | 12.7 (≈ 44.7 µM) |
| O=C1C[C@@H](c2ccccc2)Oc2cc(O)cc(O)c21 [PINOCEMBRIN] | 80.8 (≈ 315 µM) |
| COc1cc(O)c2c(c1)O[C@H](c1ccccc1)CC2=O [PINOSTROBIN] | 184 (≈ 682 µM) |
| CC[C@H]1CN2CCc3cc(OC)c(OC)cc3[C@@H]2C[C@@H]1CC1=NCCc2cc(O)c(OC)cc21 [PSYCHOTRINE] | 8.19 (≈ 17.6 µM) |
| COC1=C[C@@H](C)[C@@H]2C[C@H]3OC(=O)C[C@H]4C(C)=C(OC)C(=O)[C@H]([C@@]2(C)C1=O)[C@@]34C [QUASSIN] | 0.5 (≈ 1.29 µM) |
| C[C@H]1O[C@H](Oc2c(-c3ccc(O)c(O)c3)oc3cc(O)cc(O)c3c2=O)[C@@H](O)[C@@H](O)[C@@H]1O [QUERCETIN-3-O-RHAMNOSIDE] | 84.7 (≈ 189 µM) |
| O=c1c(O)c(-c2ccc(O)c(O)c2)oc2cc(O)cc(O)c12 [QUERCETIN] | 114 (≈ 378 µM) |
| C=C[C@H]1CN2CC[C@H]1C[C@@H]2[C@@H](O)c1ccnc2ccc(OC)cc12 [QUINIDINE] | 16.6 (≈ 51.2 µM) |

| SMILES | IC50 [µg/mL] |
| --- | --- |
| C=C[C@H]1CN2CC[C@H]1C[C@@H]2C(=O)c1ccnc2ccc(OC)cc12 [QUINIDINONE] | 7.4 (≈ 23 µM) |
| C=C[C@H]1CN2CC[C@H]1C[C@H]2[C@H](O)c1ccnc2ccc(OC)cc12 [QUININE] | 14.8 (≈ 45.6 µM) |
| C/C=C1/CN2CC[C@]34c5ccccc5N(C(C)=O)[C@H]3[C@@H](C=O)[C@@H]1C[C@H]24 [RETULINAL] | 25.2 (≈ 74.9 µM) |
| C/C=C1\CN2CC[C@]34c5ccccc5N(C(C)=O)[C@H]3[C@@H](CO)[C@H]1C[C@H]24 [RETULINE] | 21.9 (≈ 64.7 µM) |
| O=c1c(O[C@@H]2OC[C@@H](O)[C@H](O)[C@H]2O)c(-c2ccc(O)c(O)c2)oc2cc(O)cc(O)c12 [REYNOUTRIN] | 109 (≈ 251 µM) |
| COC1=C[C@]23CCN(C)[C@H](Cc4ccc(OC)c(O)c42)C3=CC1=O [SALUTARIDINE] | 50 (≈ 153 µM) |
| CC[C@@H](C)C(=O)O[C@H]1C(=O)O[C@@H]2C[C@H]3C(C)=CC(=O)[C@@H](O)[C@]3(C)[C@H]3[C@@H](O)[C@H](O)[C@]4(C)OC[C@]32[C@@H]14 [SIMALIKALACTONE D] | 0.047 (≈ 0.0982 µM) |
| O=C(/C=C/c1ccc(O)cc1)O[C@H]1[C@@H]2C=CO[C@@H](O[C@@H]3O[C@H](CO)[C@@H](O)[C@H](O)[C@H]3O)[C@@H]2[C@@]2(CO)O[C@@H]12 [SPECIOSIDE] | 0.198 (≈ 0.39 µM) |
| C/C=C1\CN2CC[C@]34c5ccccc5N5[C@@H]([C@H]6[C@@H]7N(C(C)=O)c8ccccc8[C@@]78CCN7C/C(=C\C)[C@@H]6C[C@H]78)OC[C@@H]([C@H]53)[C@H]1C[C@H]24 [STRYCHNOBILINE] | 21.5 (≈ 35 µM) |
| C=C[C@H]1CN2CC[C@@]3(C(=O)Nc4cc(O)ccc43)[C@@H]2C[C@@H]1C[C@H]1c2[nH]c3ccccc3c2CCN1C [STRYCHNOFOLINE] | 25.1 (≈ 51.9 µM) |
| C=C[C@H]1CN2CCc3c([nH]c4c([C@H]5CCCN5C)c(O)ccc34)[C@@H]2C[C@@H]1C[C@H]1c2[nH]c3ccccc3c2CCN1C [STRYCHNOPENTAMINE] | 7.7 (≈ 14 µM) |
| COc1cc2c3cc1Oc1c(OC)c(OC)c(O)c4c1[C@H](Cc1ccc(cc1)Oc1cc(ccc1O)C[C@@H]3N(C)CC2)N(C)CC4 [THALISOPIDINE] | 50 (≈ 80 µM) |
| COc1cc2c3cc1Oc1c(O)c(OC)cc4c1[C@H](Cc1ccc(O)c(c1)-c1cc(ccc1OC)C[C@H]3N(C)CC2)N(C)CC4 [TILIAGEINE] | 19.2 (≈ 31.6 µM) |
| O=C(/C=C/c1ccc(O)cc1)OC[C@H]1O[C@@H](Oc2c(-c3ccc(O)cc3)oc3cc(O)cc(O)c3c2=O)[C@H](O)[C@@H](O)[C@@H]1O [TILIROSIDE] | 17.4 (≈ 29.4 µM) |
| COc1ccc2cc1Oc1ccc(cc1)CC1=NCCc3cc(OC)c4c(c31)Oc1cc3c(cc1O4)CCN(C)[C@H]3C2 [TRIGILLETIMINE] | 23.3 (≈ 41.5 µM) |
| CC[C@H]1CN2CCc3cc(OC)c(OC)cc3[C@@H]2C[C@@H]1C[C@H]1NCCc2c1[nH]c1ccc(O)cc21 [TUBULOSINE] | 1.6 (≈ 3.36 µM) |
| C/C=C1/CN2CCc3c([nH]c4ccccc34)[C@@H]2C[C@@H]1Cc1nccc2c1[nH]c1ccccc12 [USAMBARENSINE] | 0.49 (≈ 1.13 µM) |
| C=C[C@H]1CN2CCc3c([nH]c4ccccc34)[C@@H]2C[C@@H]1C[C@H]1c2[nH]c3ccccc3c2CCN1C [USAMBARINE] | 0.46 (≈ 1.02 µM) |
| O=C(/C=C/c1ccc(O)c(O)c1)O[C@@H]1C2C=CO[C@H](O[C@@H]3O[C@H](CO)[C@@H](O)[C@H](O)[C@H]3O)C2[C@]2(CO)O[C@H]12 (some centres not stated) [VERMINOSIDE] | 0.0995 (≈ 0.19 µM) |
